Laboratory results from article PMC3949622, “Macrocyclic Pyridyl Polyoxazoles: Structure-Activity Studies of the Aminoalkyl Side-Chain on G-Quadruplex Stabilization and Cytotoxic Activity” (Molecules, 2013).
Where “and” joins values, the source holds several entries; their conditions need not be identical. Equal entries are not always repeated. Where two headings read alike, the source gives them in different places. Marks after values point to notes of the source that are not given here.

Experiments:
[1] = test system: human breast cancer xenograft (MDA-MB-435); settings: MDA-MB-435 xenograft in athymic nude mice; ref [21]; cited from earlier work
Source text: (§1) The development of G-quadruplex stabilizers as a potential new class of anticancer agents hinges on the ability to design compounds that stabilize only G-quadruplexes and not other nucleic acid structures such as duplex or triplex DNA [15]. While a diverse array of compounds have been reported to stabilize G-quadruplex DNA [1], most also have some ability to stabilize duplex DNA. The natural product telomestatin for example, is reported to stabilize G-quadruplex DNA with 70:1 selectivity over duplex DNA [16, 17]. In contrast, the synthetic macrocyclic hexaoxazole HXDV (Figure 1) demonst ...

[2] = test system: Salmon testes (ST) duplex DNA; settings: change in transition temperature of ST duplex DNA; ref [21]; cited from earlier work
Source text: Table 1 Effect of various pyridyl polyoxazoles on the thermal stabilities of duplex and quadruplex DNA. | column: Salmon Testes Duplex DNA / ΔTtran (°C) ^a

[3] = test system: human telomeric sequence d[T2G3(T2AG3)3A] (hTel) quadruplex DNA; settings: change in transition temperature of hTel quadruplex DNA; ref [21]; cited from earlier work
Method: Table 1 Effect of various pyridyl polyoxazoles on the thermal stabilities of duplex and quadruplex DNA. | column: hTel -Quadruplex DNA / ΔTtran (°C)^a || The results observed with the hTel quadruplex DNA however, stand in stark contrast with the ST duplex DNA results. In the series of three 4-phenyl substituted analogs compound 8 and 11 strongly stabilize G-quadruplex DNA by 20.5 and 24.6 °C respectively. Compound 8 has the tertiary amine directly connected to the phenyl while in 11 the amine is separated from the phenyl ring by two methylene groups. In contrast, the 3-dimethylaminopropyl analog 12 stabilizes G-quadruplex DNA to a much lesser extent. When the side-chain is attached to the 5-position of the phenyl ring the results are quite dram ...

[4] = test system: KB3-1 cells; settings: ref [21], cited from earlier work
Source text: as §1, with “Table 2 Relative cytotoxic activities. IC50 values (μM) ^a. | column: KB3-1 wt. || The development” for “The development”

[5] = test system: RPMI 8402 cells; settings: ref [21], cited from earlier work
Source text: as §1, with “Table 2 Relative cytotoxic activities. IC50 values (μM) ^a. | column: RPMI 8402 || The development” for “The development”

[6] = test system: several tumor cell lines; settings: ref [18],[20]; read-out: average IC50 towards several tumor cell lines; cited from earlier work
Source text: as §1

[7] = test system: KB3-1 cells; experiment: MTT cytotoxicity assay, KB3-1; assay type: cell-based, human; settings: continuous exposure for four days, means of at least two determinations ± standard deviation, read-out: IC50, KB3-1 wt.
Method: (§2) Each N,N-dimethylamino-substituted macrocycle was also evaluated for cytotoxic activity against a human lymphoblastoma RPMI 8402 and a human epidermoid carcinoma KB3-1 cell line (Table 2). The results from these assays are informative about the relationship of structure to cytotoxic activity among the PyPX macrocyclic G-quadruplex stabilizers. […] An explanation for this observation is not clear at this time. The three-carbon analogs 12 and 22 have nearly equivalent activity at both positions, but these longer-chain analogs are generally lower in activity than the two-carbon analogs. Attachment of the dimethylamino group directly to the phenyl ring (8 and 19) leads to compounds having the greatest cytotoxic potency at their respective points of attachment. […] In general analogs that have an even number (0 or 2) of methylene spacer groups are more cytotoxic than those with an odd number. […] Moving the side-chain away from the phenyl ring and onto an oxazole ring also fails to improve cytotoxic activity.
(§3) Cytotoxicity was determined using the MTT-microtiter plate tetrazolinium assay (MTA). The human lymphoblast RPMI 8402 cell line was provided by Dr. Toshiwo Andoh (Aichi Cancer Center Research Institute, Nagoya, Japan). The KB3-1 cell line was obtained from K.V. Chin (The Cancer Institute of New Jersey, New Brunswick, NJ, USA). The cytotoxicity assay was performed using 96-well microtiter plates. Cells were grown in suspension at 37 °C in 5% CO2 and maintained by regular passage in RPMI medium supplemented with 10% heat inactivated fetal bovine serum, L-glutamine (2 mM), penicillin (100 U/mL), and Streptomycin (0.1 mg/mL). For determination of IC50 values, cells were exposed continuously for four days to varying concentrations of drug, and MTT assays were performed at the end of the fourth day. […] All assays were performed at least twice in six replicate wells.

[8] = test system: RPMI 8402 cells; experiment: MTT cytotoxicity assay, RPMI 8402; assay type: cell-based, human; settings: continuous exposure for four days, means of at least two determinations ± standard deviation
Method: as §2, §3

[9] = test system: human telomeric sequence d[T2G3(T2AG3)3A] (hTel) quadruplex DNA; experiment: UV melting of hTel quadruplex DNA (G-quadruplex stabilization); assay type: binding; settings: hTel 5 µM strand, drug 20 µM
Method: (§4) Each compound was evaluated for its ability to selectively bind and stabilize G-quadruplex DNA in the presence of K^+ ions (150 mM). Salmon testes (ST) DNA was employed as a model of duplex DNA and the human telomeric sequence d[T2G3(T2AG3)3A], denoted as hTel, was used as a model of quadruplex DNA. This sequence has been shown by Patel and co-workers, to exist as an intramolecular (3 + 1) G-quadruplex in which three strands are oriented in one direction and the fourth is oriented in the opposite direction in K^+ solution [35]. The first-derivative forms of the UV melting profiles for ST DNA and hTel DNA were recorded in the absence and presence of the various macrocycles. The ligand-induced changes, if any, in the transition temperature (Ttran) corresponding to the maxima (for quadruplex DNA) or minima (for duplex DNA) of these first-derivative melting profiles are listed in Table 1 for each macrocycle. With the exception of 8 which has a slight (<1 °C) destabilizing effect, none of the other macrocycles alters the thermal stability of ST duplex DNA to any significant extent and any observed changes in Ttran are within the experimental uncertainty. This observation is consistent with little or no duplex DNA binding by these macrocycles. Similar behavior has been observed for other macrocyclic pyridyl polyoxazoles. Temperature-Dependent Spectrophotometry. Temperature-dependent absorption experiments were conducted on an AVIV Model 14DS Spectrophotometer (Aviv Biomedical, Lakewood, NJ, USA) equipped with a thermoelectrically controlled cell holder. Quartz cells with a path length of 1.0 cm were used for all the absorbance studies. Temperature-dependent absorption profiles were acquired at either 260 nm (for ST duplex DNA) or 295 nm (for hTel quadruplex DNA) with a 5 s averaging time. The temperature was raised in 0.5 °C increments, and the samples were allowed to equilibrate for 1 min at each temperature setting. In the quadruplex melting studies, the hTel concentration was 5 µM in strand (120 μM in nucleotide). When present in these quadruplex studies, the drug concentrations were 20 µM. In the duplex melting studies the ST DNA concentrations were 15 µM base pair (30 μM in nucleotide) and, when present, the drug concentrations were 15 µM. The buffer for all the UV melting experiments contained 10 mM potassium phosphate (pH 7.5) and sufficient KCl (132 mM) to bring the total K^+ concentration to 150 mM. Prior to their use in the UV melting experiments, all nucleic acid solutions were preheated at 90 °C for 5 min and slowly cooled to room temperature over a period of 4 hr.

[10] = test system: Salmon testes (ST) duplex DNA; experiment: UV melting of salmon testes duplex DNA; assay type: binding; settings: ST DNA 15 µM base pair, drug 15 µM
Method: as §4

[11] = Water-solubility (qualitative); assay type: physicochemical; settings: qualitative statement, method not given
[12] = range given for analogs 1 and 2 together, read-out: IC50 against KB3-1 cells
[13] = range given for analogs 1 and 2 together, read-out: IC50 against RPMI 8402 cells

Row | Structure (SMILES) | ΔTtran, salmon testes duplex DNA [2] | IC50 [4, 12] | IC50 [5, 13] | IC50 [7] | IC50 [8] | further results
1 | CN(C)CCc1cc2cc(c1)CNC(=O)c1coc(n1)-c1coc(n1)-c1cccc(n1)-c1nc(co1)-c1nc(co1)C(=O)NC2 [Compound 2] | 0 ^b °C | 30 to 40 nM | 90 to 180 nM | – | – | %T/C (average tumor volumes of treated/control animals) [1]: 27.7%; ΔTtran, hTel quadruplex DNA [3]: 20.5 °C and 20.5 ^b °C; IC50 ([4]; read-out: IC50, KB3-1 wt.): 40 nM; IC50 ([5]; read-out: IC50, RPMI 8402): 180 nM
2 | NCCc1cc2cc(c1)CNC(=O)c1coc(n1)-c1coc(n1)-c1cccc(n1)-c1nc(co1)-c1nc(co1)C(=O)NC2 [Compound 1] | – | 30 to 40 nM | 90 to 180 nM | – | – | –
3 | CC(C)[C@@H]1NC(=O)c2coc(n2)-c2coc(n2)-c2coc(n2)[C@H](C(C)C)NC(=O)c2coc(n2)-c2coc(n2)-c2coc1n2 [HXDV, reference compound] | 0 ^b °C | – | – | 350 ± 80 nM | 540 ± 120 nM | IC50 [6]: 500 nM
4 | CN(C)CCc1oc2nc1C(=O)NCc1cccc(c1)CNC(=O)c1coc(n1)-c1coc(n1)-c1cccc(n1)-c1nc-2co1 [Compound 36, Pyridyl tetraoxazole macrocycle with a single 2-(N,N-dimethylamino)ethyl side chain] | – | – | – | 140 ± 20 nM | 280 ± 40 nM | ΔTtran, hTel quadruplex DNA ([9]; change in Ttran induced by compound, UV melting at 295 nm, pH 7.5, K+ 150 mM, uncertainty ± 0.5 °C): 4.6 °C; Ttran, hTel quadruplex DNA ([9]; first-derivative UV melting at 295 nm, 10 mM potassium phosphate pH 7.5, total K+ 150 mM, no drug: 64.6): 69.2 °C; ΔTtran, salmon testes duplex DNA ([10]; change in Ttran induced by compound, UV melting at 260 nm, pH 7.5, K+ 150 mM, uncertainty ± 0.5 °C): −0.4 °C; Ttran, salmon testes duplex DNA ([10]; first-derivative UV melting at 260 nm, 10 mM potassium phosphate pH 7.5, total K+ 150 mM, no drug: 86.6): 86.2 °C; water-solubility [11]: good water-solubility
